Tested on: Ha-CoV-2(Luc)
Assay: microbe, parasite or virus in culture
Assay type: cell-based, SARS-CoV-2
Conditions: Severe acute respiratory syndrome coronavirus 2, HEK-293T, read-out: IC50 (inhibition of Ha-CoV-2(Luc) infection)

In the case of CCOC(=O)c1c(CSc2ccccc2)n(C)c2cc(Br)c(O)c(CN(C)C)c12 [Arbidol, Arbidol (Umifenovir)], the IC50 is reported as 16 µM.

Reference: US11473064B2, “Hybrid alphavirus-SARS-CoV-2 particle and methodology of making and using same” (GEORGE MASON RESEARCH FOUNDATION, INC., priority 2020, dated 2022)
